The record followed here is ChEMBL document CHEMBL4483862, “Open-source discovery of chemical leads for next-generation chemoprotective antimalarials” (2018).

In general, IC50 refers to the midpoint of a concentration-inhibition curve. In general, IC90 refers to the point of the concentration-response curve where the effect stands at 90%.

This test relates to Plasmodium berghei. Nature of the test: Luciferase/luciferin-expressing antifolate-resistant parasites were used to infect a culture of HepG2 cells that were pre-incubated with compounds. Infected hepatocytes emit light due to the luciferase reaction. Assay results are presented as the percent inhibition of light emission compared to control. […]. The test is classed as functional. The note with it: sporozoite; for IC90: read-out: LUCIFERASE INFECTION ASSAY - IC90.

[1] abbreviates: read-out: LUCIFERASE INFECTION ASSAY - IC50.

Each structure is given as a SMILES string. A value given as a limit tells only on which side of the number the result lay.

Take `Oc1ccc(C2=CCN(c3ncnc4ccccc34)CC2)cc1`: the IC90 was determined as 2.89 µM. The IC50 (HEPG2TOX_HILL_SLOPE 0.526, HEPG2TOX_R_SQUARED 0.691, PBLUC_HILL_SLOPE 1.57, PBLUC_R_SQUARED 0.66, read-out: LUCIFERASE INFECTION ASSAY - IC50) was 0.716 µM.

As to `CSC1=C(C#N)C(=O)NC(c2ccc(Cl)cc2Cl)S1` (centres undefined), the IC90 is above 9.96 µM. Also, under setting [1], the IC50 is above 9.96 µM.

As to `Cc1ccc(C(NCC(=O)Nc2cc(S(C)(=O)=O)ccc2Cl)c2ccccc2)cc1C` (centres undefined), the IC90 came to 4.49 µM. For the same molecule, the IC50 (PBLUC_HILL_SLOPE 11.2, PBLUC_R_SQUARED 0.465, read-out: LUCIFERASE INFECTION ASSAY - IC50) amounted to 3.69 µM.

Consider `Cc1cc(OCC(=O)NC(C)c2ccc(-n3cncn3)cc2)no1` (centres undefined), for which the IC90 was above 10 µM. Moreover, under setting [1], the IC50 was above 10 µM.

Take `COc1ccc(/C=C2\C(=O)/C(=C/c3ccc(OC)c(O)c3)c3ccccc32)cc1O`: the IC90 worked out at 3.46 µM. Moreover, the IC50 (HEPG2TOX_HILL_SLOPE 2.67, HEPG2TOX_R_SQUARED 0.974, PBLUC_HILL_SLOPE 3.5, PBLUC_R_SQUARED 0.766, read-out: LUCIFERASE INFECTION ASSAY - IC50) was determined as 1.85 µM.

Regarding `CCCN1C(=O)C(=O)N(CN2CCc3sccc3C2)C1=O`, the IC90 is above 2 µM. In addition, the IC50 under setting [1] was above 2 µM.

Turning to `Cc1ccc2nc(NC(=O)c3ccccc3C)c(C(=O)NCC(C)C)n2c1`, the IC90 was 9 µM. Also, where the note is “HEPG2TOX_HILL_SLOPE 2.35, HEPG2TOX_R_SQUARED 0.51, PBLUC_HILL_SLOPE 14.9, PBLUC_R_SQUARED 0.347, read-out: LUCIFERASE INFECTION ASSAY - IC50”, the IC50 came out at 7.76 µM.

On to `O=C(Nc1nc2c(s1)CCCC2)c1ccc(Nc2ccccc2)c([N+](=O)[O-])c1`, for which the IC90 is above 10 µM. The concentration for half-maximal inhibition (IC50) under setting [1] is above 10 µM.

`COc1cc(-c2cnc3cnc(-c4cccs4)cn23)cc(OC)c1OC`: the IC90 came out at 2.1 µM. Also, the IC50 (HEPG2TOX_HILL_SLOPE 1.1, HEPG2TOX_R_SQUARED 0.918, PBLUC_HILL_SLOPE 2.83, PBLUC_R_SQUARED 0.515, read-out: LUCIFERASE INFECTION ASSAY - IC50) is 0.964 µM.

Turning to `CCc1c(C)[nH]c2c(-c3ccc(Cl)cc3)cnn2c1=O`, the IC90 came out at 11 µM. The IC50 under setting [1] was found to be 5.93 µM.

In the case of `CC(Cc1cccs1)N(Cc1ccc(Cl)cc1)C(=O)c1ccc(Cl)c(S(=O)(=O)N2CCCCC2)c1` (centres undefined), the IC90 was above 10 µM. Besides, where the note is “FFLUC_HILL_SLOPE 17, FFLUC_R_SQUARED 0.198, read-out: LUCIFERASE INFECTION ASSAY - IC50”, the IC50 was above 10 µM.

As for `CC1c2ccsc2CCN1C(=S)NC(=O)c1ccc(C(C)(C)C)cc1` (centres undefined), the IC90 was above 8.86 µM. For the same molecule, the IC50 (HEPG2TOX_HILL_SLOPE 0.0482, HEPG2TOX_R_SQUARED 0.0333, read-out: LUCIFERASE INFECTION ASSAY - IC50) was above 8.86 µM.

In the case of `O=C(Cn1c(=O)ccn(Cc2ccccc2)c1=O)N1CCC(n2c(=O)[nH]c3ccccc32)CC1`, the IC90 was above 10 µM. Under setting [1], the IC50 is above 10 µM.

On to `CSc1nnc(Sc2ncc([N+](=O)[O-])s2)s1`, for which the IC90 is above 11.3 µM. Also, the IC50 (FFLUC_HILL_SLOPE 11.6, FFLUC_R_SQUARED 0.224, HEPG2TOX_HILL_SLOPE 8.93, HEPG2TOX_R_SQUARED 0.0924, PBLUC_HILL_SLOPE 12.6, PBLUC_R_SQUARED 0.322, read-out: LUCIFERASE INFECTION ASSAY - IC50) was 10 µM.

For `Cn1cc(-c2cnc3cnc(-c4ccc5c(c4)OCO5)cn23)cn1`, the IC90 was above 10.3 µM. Moreover, the IC50 (PBLUC_HILL_SLOPE 3.19, PBLUC_R_SQUARED 0.356, read-out: LUCIFERASE INFECTION ASSAY - IC50) came to 9.57 µM.

As for `c1ccc(-c2nnc(CSC3=NCCS3)o2)cc1`, the IC90 was above 10 µM. For the same molecule, the IC50 under setting [1] was above 10 µM.

As to `CN1/C(=C\C(=O)C[n+]2ccc3ccccc3c2)C(C)(C)c2ccccc21`, the IC90 worked out at 1.83 µM. For the same molecule, the IC50 under setting [1] amounted to 1.05 µM.

In the case of `Cc1ccccc1-n1c(SCC(=O)NC2CCCCC2)nc(O)cc1=O`, the 90% effect concentration (IC90) was found to be 3.36 µM. Also, the IC50 (PBLUC_HILL_SLOPE 12.2, PBLUC_R_SQUARED 0.38, read-out: LUCIFERASE INFECTION ASSAY - IC50) worked out at 2.81 µM.

As to `N#C/C(=C\c1ccc(Cl)cc1Cl)c1ccc(O)cc1`, the IC90 is above 11.4 µM. Further, the IC50 (HEPG2TOX_HILL_SLOPE 4.92, HEPG2TOX_R_SQUARED 0.97, PBLUC_HILL_SLOPE 12.5, PBLUC_R_SQUARED 0.376, read-out: LUCIFERASE INFECTION ASSAY - IC50) was found to be 10.5 µM.

In the case of `O=S(=O)(c1ccc(NC(=S)N/N=C2\CC(c3ccccc3)Oc3ccccc32)cc1)N1CCOCC1` (centres undefined), the IC90 is above 10 µM. Moreover, under setting [1], the IC50 turned out to be 8.98 µM.

Take `CN(CC(=O)Nc1ccc(F)c(F)c1F)C(C(=O)Nc1ccc(Cl)c(C(F)(F)F)c1)c1ccccc1` (centres undefined): the IC90 is above 10 µM. The IC50 under setting [1] came to 6.74 µM.

As for `Cc1ccc(C(=O)C(c2ccc(C)cc2)N2C(=O)NC(C)(c3ccccc3)C2=O)cc1` (centres undefined), the IC90 was above 10 µM. The IC50 (FFLUC_HILL_SLOPE 10.4, FFLUC_R_SQUARED 0.468, read-out: LUCIFERASE INFECTION ASSAY - IC50) is above 10 µM.

Take `CCOc1ccc(OS(=O)(=O)c2ccc(-n3ncc(Cl)c(Cl)c3=O)cc2)cc1`: the IC90 is 3.34 µM. Besides, the IC50 (FFLUC_HILL_SLOPE 1.43, FFLUC_R_SQUARED 0.409, HEPG2TOX_HILL_SLOPE 3.88, HEPG2TOX_R_SQUARED 0.973, PBLUC_HILL_SLOPE 4.23, PBLUC_R_SQUARED 0.659, read-out: LUCIFERASE INFECTION ASSAY - IC50) worked out at 1.99 µM.

Turning to `O=C(Nc1cccc(Cl)c1)Nc1csc([N+](=O)[O-])c1`, the IC90 amounted to 9.45 µM. The IC50 (HEPG2TOX_HILL_SLOPE 11, HEPG2TOX_R_SQUARED 0.423, PBLUC_HILL_SLOPE 4.17, PBLUC_R_SQUARED 0.367, read-out: LUCIFERASE INFECTION ASSAY - IC50) is 5.58 µM.

Take `CC(C)CC(=O)NNc1ccnc2cc(Cl)ccc12`: the 90% effect concentration (IC90) worked out at 4.29 µM. Also, the IC50 (HEPG2TOX_HILL_SLOPE 0.439, HEPG2TOX_R_SQUARED 0.287, PBLUC_HILL_SLOPE 11, PBLUC_R_SQUARED 0.716, read-out: LUCIFERASE INFECTION ASSAY - IC50) was found to be 3.51 µM.

For the molecule `CS(=O)(=O)c1sc(NC(=O)Nc2ccccc2Cl)c2ccccc12`, the IC90 is above 8.66 µM. Moreover, the IC50 under setting [1] is above 8.66 µM.

With `Cc1cc(C)cc(NC(=S)NCCCCN2CCN(c3cccc(Cl)c3)CC2)c1`, the IC90 was above 7.66 µM. In addition, the IC50 (PBLUC_HILL_SLOPE 3.55, PBLUC_R_SQUARED 0.0766, read-out: LUCIFERASE INFECTION ASSAY - IC50) turned out to be 7.54 µM.

Regarding `Oc1c(-c2cc(C(F)(F)F)[nH]n2)ccc2ccccc12`, the IC90 worked out at 4.29 µM. Besides, the IC50 (HEPG2TOX_HILL_SLOPE 2.58, HEPG2TOX_R_SQUARED 0.339, PBLUC_HILL_SLOPE 10.9, PBLUC_R_SQUARED 0.613, read-out: LUCIFERASE INFECTION ASSAY - IC50) came to 3.51 µM.

Take `COC(=O)c1c(C)[nH]c(C(=O)Nc2ccc(C)cn2)c1C`: the IC90 worked out at 2.63 µM. In addition, where the note is “FFLUC_HILL_SLOPE 0.774, FFLUC_R_SQUARED 0.984, PBLUC_HILL_SLOPE 0.487, PBLUC_R_SQUARED 0.641, read-out: LUCIFERASE INFECTION ASSAY - IC50”, the IC50 came out at 0.0288 µM.

On to `O=C(Cn1cc(I)c(=O)c(I)c1)OCC(=O)N1CCCc2ccccc21`, for which the IC90 is above 10 µM. Under setting [1], the IC50 was above 10 µM.

Turning to `C=C(C)CSc1nc2cc(-c3ccc(C)cc3)sc2c(=O)n1Cc1ccccc1`, the IC90 is above 10 µM. Further, the IC50 (FFLUC_HILL_SLOPE 3.73, FFLUC_R_SQUARED 0.533, read-out: LUCIFERASE INFECTION ASSAY - IC50) was above 10 µM.

Take `Cc1nn2c(=O)c(Cc3cccc(Cl)c3)c(C)[nH]c2c1-c1ccccc1`: the IC90 amounted to 2.81 µM. Besides, the concentration for half-maximal inhibition (IC50) (FFLUC_HILL_SLOPE 22.4, FFLUC_R_SQUARED 0.436, HEPG2TOX_HILL_SLOPE 3.67, HEPG2TOX_R_SQUARED 0.334, PBLUC_HILL_SLOPE 3.2, PBLUC_R_SQUARED 0.748, read-out: LUCIFERASE INFECTION ASSAY - IC50) turned out to be 1.41 µM.

Turning to `CNC(=S)N/N=C1\C(=O)Nc2ccc(C(C)C)cc21`, the IC90 was above 10 µM. Also, under “FFLUC_HILL_SLOPE 0.391, FFLUC_R_SQUARED 0.18, PBLUC_HILL_SLOPE 8.53, PBLUC_R_SQUARED 0.15, read-out: LUCIFERASE INFECTION ASSAY - IC50”, the IC50 worked out at 8.69 µM.

Regarding `CN(C)S(=O)(=O)c1cccc(C(=O)Nc2cnc3ccccc3c2)c1`, the IC90 was above 10 µM. Also, the IC50 (PBLUC_HILL_SLOPE 0.341, PBLUC_R_SQUARED 0.599, read-out: LUCIFERASE INFECTION ASSAY - IC50) was 0.331 µM.

Regarding `Cc1nn(-c2ccccc2)c(C)c1-c1nc(-c2ccccc2)no1`, the IC90 stood at 5.81 µM. Moreover, where the note is “FFLUC_HILL_SLOPE 123, FFLUC_R_SQUARED 0.665, PBLUC_HILL_SLOPE 0.902, PBLUC_R_SQUARED 0.808, read-out: LUCIFERASE INFECTION ASSAY - IC50”, the IC50 stood at 0.508 µM.

Regarding `CC(C)(C)c1ccc(C(=O)ONC(=O)c2ccc(Cl)c(Cl)c2)cc1`, the IC90 is above 9.01 µM. Moreover, the IC50 under setting [1] was above 9.01 µM.

For `N#C/C(=N\Nc1ccc(Cl)cc1)S(=O)(=O)c1ccc(Cl)cc1`, the IC90 came to 3.93 µM. The IC50 (HEPG2TOX_HILL_SLOPE 1.06, HEPG2TOX_R_SQUARED 0.975, PBLUC_HILL_SLOPE 5.18, PBLUC_R_SQUARED 0.893, read-out: LUCIFERASE INFECTION ASSAY - IC50) is 2.57 µM.
